Patent publication US11589575B2, “Injectable preserving medium for preserving cells from placental blood, from bone marrow and from peripheral blood” (ETABLISSEMENT FRANCAIS DU SANG, priority 2015, dated 2023)
Entries after “also recorded” stand apart in the source; their conditions may differ.

System: placental blood CD34+ cells amplified ex vivo
Assay: Preservation at +4° C. of ex vivo amplified placental blood CD34+ cells (TNC viability and clonogenic CFC/CFU yield)
Assay type: cell-based, human
Settings: for preserving of the functionality (clonogenicity) of amplified cells: cells stored at +4° C.
Procedure: The cells, after ex vivo expansion, are more fragile than the original CD34+ cells, and the maintaining thereof is most critical at +4° C. (Duchez et al, 2013, supra).
Throughout all the studies leading to the formulation of the biological preserving medium, the assays were conducted on placental blood CD34+ cells derived from a bank with storage at −196° C. Each assay was performed on one 1 or more samples.
The placental blood CD34+ cells were isolated with an immunomagnetic system, then frozen and banked at −196° C.
After thawing, the placental blood CD34+ cells (20000/ml) were placed in culture in HP01 medium in the presence of SCF (Stem Cell Factor) 100 ng/ml, Flt3 (FMS-like tyrosine kinase-3) 100 ng/ml, G-CSF (Granulocyte Colony Stimulating Factor) 10 ng/ml, and thrombopoietin (TPO) 20 ng/ml at 37° C., 5% CO2 and 85% humidity. At mid-culture, the addition was made of HP01 culture medium with the cytokines (1/5 dilution) and culture continued up to 9 to 12 days (generally 10 days).
After culture, 2.5 ml of cell suspension were transferred to 2.5 ml gas-impermeable polypropylene tubes and centrifuged at 430 g for 10 minutes at 18° C. The supernatant was fully removed (with about 50 μl of supernatant remaining on the cell residue). Then, 2.45 ml of preserving medium to be assayed (at ambient temperature) were added to the tube and the tube sealed with the stopper; the cells being replaced in suspension with successive upturning movements. The samples were left at ambient temperature for 1 to 3 hours. Finally, the tubes were placed flat at +4° C. for times generally of 48 h to 72 h. Assays were also conducted in gas-permeable PVC pouches for comparative studies and in gas-impermeable EVA pouches.
Analyses were performed on the amplified cells: counting and viability of TNCs (Total Nucleated Cells), clonogenic assays, sometimes with counting and viability of CD34+ cells. After the period at +4° C. for the defined times (48 h and 72 h), the cell samples were assayed: counting and viability of TNCs and clonogenic assays (at times also counting and viability of CD34+ cells).
The quantity of viable total nucleated cells remaining after storage at 4° C. was compared with the quantity of viable total nucleated cells at the end of culture, to obtain a recovery yield of viable cells. Similarly, the yield of CFCs (Colony Forming Cells) was calculated. The values obtained were used to evaluate the advantage of one or more compounds in the formulation and to identify the optimal concentration of these compounds. The values were compared with those obtained with the HP02 preserving medium (Duchez et al, 2013, supra).

SMILES	preserving of the functionality (clonogenicity) of amplified cells	action throughout the assays on preservation of amplified cells (readout not further specified) (stored at +4° C.)
CC1=C(/C=C/C(C)=C/C=C/C(C)=C/CO)C(C)(C)CCC1 [vitamin A, Retinol]	lesser action	–
O=C1O[C@H]([C@@H](O)CO)C(O)=C1O [vitamin C, Ascorbic acid]	lesser action	–
Cc1c(C)c2c(c(C)c1O)CC[C@@](C)(CCC[C@H](C)CCC[C@H](C)CCCC(C)C)O2 [vitamin E, Alpha-tocopherol]	the greatest action; also recorded: the most important action	effect close to or identical to the effect of Cernevit®
